Where two headings read alike, the source gives them in different places.

Experiment [1] has as its target recombinant human Bcl-2-G101V protein (Homo sapiens (Human), UniProt P10415, G101V). Nature of the experiment: Bcl-2-G101V TR-FRET Assay. In kind it is binding. The following applies: Bcl-2 G101V mutant, TR-FRET; read-out: Biochemical assay (IC50, nM) Bcl-2 G101V. In a few lines:
(§1)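 Percent inhibition of the Bcl-2-G101V–ligand interaction was computed from the 490 nm to 520 nm emission ratio after 337 nm excitation, over increasing compound concentrations; a four-parameter logistic fit gave IC50.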
A general note: TR-FRET usually uses a lanthanide donor and a delayed reading to cut background.

Experiment [2] relates to recombinant human Bcl-2-G101V protein. Nature of the experiment: Bcl-2-G101V TR-FRET Assay. The following applies: for Ratio of Bcl-2 G101V/WT: ratio of biochemical IC50 Bcl-2 G101V / Bcl-2 WT; for ratio of IC50 of Bcl-2 G101V/Bcl-2 wt, compared with Example F132b in WO2019210828 and ABT-199 (venetoclax): comparison in words. In kind it is binding. In a few lines:
as §1

Experiment [3] relates to BCL-2 G101V knock-in cell line H96 (derive from RS4;11). The experiment is described as follows: Bcl 2-G101V Knock-In RS4;11 Cell Proliferation Assay. The settings on record: Homo sapiens, RS4-11, 48 h, RS4;11 Bcl-2 G101V knock-in clone H96, 48 hrs, CellTiter-GLO, read-out: Cellular proliferation assay (IC50, nM) RS4. It counts as cell-based. The procedure, abridged: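 CellTiter-Glo luminescence after 48 h, 37 °C compound treatment (10 concentrations, maximum 1 μM or 10 μM) gave mean IC50 values. Cells were 50,000 per well of H96, a BCL2-G101V knock-in single clone derived from RS4;11 by Cas9 editing.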
For orientation: Cellular ATP, detected with luciferase, serves as a proxy for viable cell number.

Experiment [4] addresses Recombinant human Bcl-2 protein (Homo sapiens (Human), UniProt P10415). Nature of the experiment: Bcl-2 TR-FRET Assay. It counts as binding. In a few lines:
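TR-FRET read (337 nm excitation, 520/490 nm emission) after 1 h with 0.5 nM FITC-labeled Bak peptide and Tb-cryptate anti-6His antibody. Bcl-2 at 0.05 nM had been pre-incubated 0.5 h with compound. IC50 fitted by four-parameter logistic equation.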

The mark [5] stands for this setting: Bcl-2 wild type, TR-FRET, read-out: Biochemical assay (IC50, nM) Bcl-2 WT.
The mark [6] stands for this setting: wild type Bcl-2, unit inferred, read-out: Bcl-2 WT.

For the compound `COc1cc(CN2CCN(C3CC4(C3)CN(c3ccc(C(=O)NS(=O)(=O)c5ccc(NC[C@H]6CC[C@](C)(O)CC6)c([N+](=O)[O-])c5)c(Oc5cnc6[nH]cc(F)c6c5)c3)C4)[C@H](c3ccccc3C(C)C)C2)cc(F)c1OC` [Example 230, 2-((3-fluoro-1H-pyrrolo[2,3-b]pyridin-5-yl)oxy)-4-(6-((R)-4-(3-fluoro-4,5-dimethoxybenzyl)-2-(2-isopropylphenyl)piperazin-1-yl)-2-azaspiro[3.3]heptan-2-yl)-N-((4-((((1r,4r)-4-hydroxy-4-methylcyclohexyl)methyl)amino)-3-nitrophenyl)sulfonyl)benzamide], the figures for the IC50 in experiment [1], in experiment [3] and in experiment [4] (setting [5]) were 0.52 nM, 0.28 nM and 0.19 nM, respectively. Also, the “Ratio of Bcl-2 G101V/WT” value in experiment [2] was determined as 2.8.

As to `COc1cc(CN2CCN(C3CC4(C3)CN(c3ccc(C(=O)NS(=O)(=O)c5ccc(NC[C@H]6CC[C@](C)(O)CC6)c([N+](=O)[O-])c5)c(Oc5cnc6[nH]cc(F)c6c5)c3)C4)[C@H](c3ccccc3C(C)C)C2)ccc1C1CC1` [Example 232, 4-(6-((R)-4-(4-cyclopropyl-3-methoxybenzyl)-2-(2-isopropylphenyl)piperazin-1-yl)-2-azaspiro[3.3]heptan-2-yl)-2-((3-fluoro-1H-pyrrolo[2,3-b]pyridin-5-yl)oxy)-N-((4-((((1r,4r)-4-hydroxy-4-methylcyclohexyl)methyl)amino)-3-nitrophenyl)sulfonyl)benzamide], the IC50 in experiment [1] was 1.3 nM; in experiment [3], 0.19 nM; in experiment [4] (setting [5]), 0.7 nM; in experiment [4] (setting [6]), 0.59 nM. For the same compound, in experiment [2], the “ratio of IC50 of Bcl-2 G101V/Bcl-2 wt, compared with Example F132b in WO2019210828 and ABT-199 (venetoclax)” value (“ratio of IC50 of Bcl-2 G101V/Bcl-2 wt” below) is reported as “much lower”. Further, the “Ratio of Bcl-2 G101V/WT” value in experiment [2] amounted to 1.8.

Consider `COc1cc(CN2CCN(C3CC4(C3)CN(c3ccc(C(=O)NS(=O)(=O)c5ccc(NC[C@H]6CC[C@](C)(O)CC6)c([N+](=O)[O-])c5)c(Oc5cnc6[nH]ccc6c5)c3)C4)[C@H](c3ccccc3C(C)C)C2)ccc1C1CC1` [Example 233, 2-((1H-pyrrolo[2,3-b]pyridin-5-yl)oxy)-4-(6-((R)-4-(4-cyclopropyl-3-methoxybenzyl)-2-(2-isopropylphenyl)piperazin-1-yl)-2-azaspiro[3.3]heptan-2-yl)-N-((4-((((1r,4r)-4-hydroxy-4-methylcyclohexyl)methyl)amino)-3-nitrophenyl)sulfonyl)benzamide], for which the IC50 in experiment [1] amounted to 0.95 nM; in experiment [3], 0.25 nM; in experiment [4] (setting [5]), 0.43 nM; in experiment [4] (setting [6]) it was 0.43 nM. For the same compound, the “ratio of IC50 of Bcl-2 G101V/Bcl-2 wt” value in experiment [2] is “much lower”. In experiment [2], the “Ratio of Bcl-2 G101V/WT” value was 2.2.

As for `COc1cc(CN2CCN(C3CC4(CCN(c5ccc(C(=O)NS(=O)(=O)c6ccc(NC[C@H]7CC[C@](C)(O)CC7)c([N+](=O)[O-])c6)c(Oc6cnc7[nH]ccc7c6)c5)CC4)C3)[C@H](c3ccccc3C(C)C)C2)ccc1C1CC1` [Example 257], the IC50 turned out to be 0.99 nM in experiment [1], 0.53 nM in experiment [3] and 0.4 nM in experiment [4] (setting [5]). Moreover, in experiment [2], the “Ratio of Bcl-2 G101V/WT” value was 2.5.

Regarding `COc1cc(CN2CCN(C3CC4(C3)CN(c3ccc(C(=O)NS(=O)(=O)c5ccc(NC[C@H]6CC[C@](C)(O)CC6)c([N+](=O)[O-])c5)c(Oc5cnc6[nH]cc(F)c6c5)c3)C4)[C@H](c3ccccc3C(C)C)C2)ccc1C` [Example 274, 2-((3-fluoro-1H-pyrrolo[2,3-b]pyridin-5-yl)oxy)-N-((4-((((1r,4r)-4-hydroxy-4-methylcyclohexyl)methyl)amino)-3-nitrophenyl)sulfonyl)-4-(6-((R)-2-(2-isopropylphenyl)-4-(3-methoxy-4-methylbenzyl)piperazin-1-yl)-2-azaspiro[3.3]heptan-2-yl) benzamide], the IC50 in experiment [1] worked out at 0.85 nM; in experiment [3] it was 0.29 nM; in experiment [4] (setting [5]), 0.55 nM; in experiment [4] (setting [6]), 0.55 nM. In addition, the “Ratio of Bcl-2 G101V/WT” value in experiment [2] amounted to 1.5.

For the compound `COc1cc(CN2CCN(C3CC4(CCN(c5ccc(C(=O)NS(=O)(=O)c6ccc(NC[C@H]7CC[C@](C)(O)CC7)c([N+](=O)[O-])c6)c(Oc6cnc7[nH]cc(F)c7c6)c5)CC4)C3)[C@H](c3ccccc3C(C)C)C2)cc2ccoc12` [Example 281, 2-((3-fluoro-1H-pyrrolo[2,3-b]pyridin-5-yl)oxy)-N-((4-((((1r,4r)-4-hydroxy-4-methylcyclohexyl)methyl)amino)-3-nitrophenyl)sulfonyl)-4-(2-((R)-2-(2-isopropylphenyl)-4-((7-methoxybenzofuran-5-yl)methyl)piperazin-1-yl)-7-azaspiro[3.5]nonan-7-yl)benzamide], the IC50 in experiment [1] amounted to 0.99 nM; in experiment [3] it was 0.31 nM; in experiment [4] (setting [5]), 0.43 nM; in experiment [4] (setting [6]), 0.43 nM. The “Ratio of Bcl-2 G101V/WT” value in experiment [2] came out at 2.3.

For `COc1cc(CN2CCN(C3CC4(CCN(c5ccc(C(=O)NS(=O)(=O)c6ccc(NC[C@H]7CC[C@](C)(O)CC7)c([N+](=O)[O-])c6)c(Oc6cnc7[nH]cc(F)c7c6)c5)CC4)C3)[C@H](c3ccccc3C(C)C)C2)cc2c1OCC2(C)C` [Example 285, 2-((3-fluoro-1H-pyrrolo[2,3-b]pyridin-5-yl)oxy)-N-((4-((((1r,4r)-4-hydroxy-4-methylcyclohexyl)methyl)amino)-3-nitrophenyl)sulfonyl)-4-(2-((R)-2-(2-isopropylphenyl)-4-((7-methoxy-3,3-dimethyl-2,3-dihydrobenzofuran-5-yl)methyl)piperazin-1-yl)-7-azaspiro [3.5]nonan-7-yl)benzamide], the IC50 in experiment [1] came to 0.87 nM; in experiment [3] it was 0.41 nM; in experiment [4] (setting [5]) it was 0.26 nM; in experiment [4] (setting [6]), 0.26 nM. Further, the “Ratio of Bcl-2 G101V/WT” value in experiment [2] turned out to be 3.4.

Turning to `COc1cc(CN2CCN(C3CC4(C3)CN(c3ccc(C(=O)NS(=O)(=O)c5ccc(NC[C@H]6CC[C@](C)(O)CC6)c([N+](=O)[O-])c5)c(Oc5cnc6[nH]cc(F)c6c5)c3)C4)[C@H](c3ccccc3C(C)C)C2)cc2c1OCCC2` [Example 312, 2-((3-fluoro-1H-pyrrolo[2,3-b]pyridin-5-yl)oxy)-N-((4-((((1r,4r)-4-hydroxy-4-methylcyclohexyl)methyl)amino)-3-nitrophenyl)sulfonyl)-4-(6-((R)-2-(2-isopropylphenyl)-4-((8-methoxychroman-6-yl)methyl)piperazin-1-yl)-2-azaspiro[3.3]heptan-2-yl)benzamide], the IC50 in experiment [1] turned out to be 0.27 nM; in experiment [3], 0.3 nM; in experiment [4] (setting [5]), 0.094 nM; in experiment [4] (setting [6]) it was 0.08 nM. In addition, the “Ratio of Bcl-2 G101V/WT” value in experiment [2] is 2.9.

As to `COc1cc(CN2CCN(C3CC4(C3)CN(c3ccc(C(=O)NS(=O)(=O)c5ccc(NC[C@H]6CC[C@](C)(O)CC6)c([N+](=O)[O-])c5)c(Oc5cnc6[nH]cc(F)c6c5)c3)C4)[C@H](c3ccccc3C(C)C)C2)ccc1OC1CC1` [Example 321, 4-(6-((R)-4-(4-cyclopropoxy-3-methoxybenzyl)-2-(2-isopropylphenyl)piperazin-1-yl)-2-azaspiro[3.3]heptan-2-yl)-2-((3-fluoro-1H-pyrolo[2,3-b]pyridin-5-yl)oxy)-N-((4-((((1r,4r)-4-hydroxy-4-methylcyclohexy)methyl)amino)-3-nitrophenyl)sulfonyl)benzamide], the IC50 in experiment [1] came to 0.35 nM; in experiment [3], 0.24 nM; in experiment [4] (setting [5]) it was 0.17 nM; in experiment [4] (setting [6]) it was 0.17 nM. In addition, the “Ratio of Bcl-2 G101V/WT” value in experiment [2] is 2.

On to `COc1cc(CN2CCN(C3CC4(C3)CN(c3ccc(C(=O)NS(=O)(=O)c5ccc(NC[C@H]6CC[C@](C)(O)CC6)c([N+](=O)[O-])c5)c(Oc5cnc6[nH]cc(F)c6c5)c3)C4)[C@H](c3ccccc3C(C)C)C2)cc2cc(C)oc12` [Example 338, 2-((3-fluoro-1H-pyrrolo[2,3-b]pyridin-5-yl)oxy)-N-((4-((((1r,4r)-4-hydroxy-4-methylcyclohexyl)methyl)amino)-3-nitrophenyl)sulfonyl)-4-(6-((R)-2-(2-isopropylphenyl)-4-((7-methoxy-2-methylbenzofuran-5-yl)methyl)piperazin-1-yl)-2-azaspiro[3.3]heptan-2-yl)benzamide], for which the IC50 was 1.4 nM in experiment [1], 0.15 nM in experiment [3], 0.59 nM in experiment [4] (setting [5]) and 0.59 nM in experiment [4] (setting [6]). Further, the “ratio of IC50 of Bcl-2 G101V/Bcl-2 wt” value in experiment [2] was “much lower”. Besides, the “Ratio of Bcl-2 G101V/WT” value in experiment [2] is given as 2.3.

These data come from patent US20240376097A1, “BCL-2 Inhibitor” (BeiGene Ltd., priority 2020, published 2024).
